Reference: patent US20130046098A1, “KINASE INHIBITORS” (THE UNIVERSITY OF MANCHESTER, priority 2009, published 2013)
Entries after “also recorded” stand apart in the source; their conditions may differ.

Columns and labels:
recombinant ROCK = test: In vitro ROCK activity assay (Cyclex Rho-kinase immunoassay); assay type: biochemical; settings: FIG. 2A bar chart
Protocol: A specific assay was used to evaluate the ability of the compounds of the invention to inhibit ROCK. Rho-kinase activity was determined using an immunoassay as recommended by the manufacturer (Cyclex Co., Ltd., Nagano, Japan). Briefly, […] samples containing 10 mUnit (1 Unit incorporates 1 nmol of phosphate into GST-MBS/MYPT1 per minute at 30° C.) of recombinant ROCK with or without the compounds of the invention were aliquoted into a 96-well plate (100 μl/well), pre-coated with threonine Rho-kinase phosphorylation substrate. After 30 min incubation at 30° C., the plate was washed three times with PBS then incubated with 100 μl/well of HRP conjugated anti-phospho-specific antibody for 1 h at room temperature. The amount of phosphorylated substrate was determined by adding 100 μl/well of substrate reagent for 10 min and the reaction was terminated by adding 100 μl/well of the stop solution. The absorbance was measured on a 96-well plate reader at 450 nm (Dynex Technologies, West Sussex, UK). Each data point was performed in triplicate and the assay was repeated twice.

[1] = system: GEF16 transfected NIH3T3 cells; test: Cell proliferation assay (Celltiter Aq96); assay type: cell-based, mouse; settings: 10 μM, FIG. 3B, P>0.05
Protocol: FIG. 1D is a bar chart showing the results of Cell AQ^96 assessment of the growth of GEF16 and vector transfected cells seeded in a 96 well plate at 1×10^3 cells per well. These were incubated for 3 days followed by addition of reagent to determine the starting point for the assay. 10 μM of either Y27632 or DMSO were then added to wells containing both cell types and Cell AQ^96 absorbance measured at 6, 8 and 10 days. At day 3 cells were 100% confluent which was determined by phase contrast visual inspection of the cultures at ×20 magnification;
Cell proliferation was investigated using Celltiter Aq^96 reagent (Promega, Southampton, UK) according to the manufacturer's protocol. Cells were seeded into a 96-well plate at a density of 1×10^3 cells/well allowing 3 wells per data point and allowed to attach for a set period. Following this, the initial starting point 490 nm absorbance was determined by adding 20 μl of Aq^96 reagent to each well and incubating for 4 h at 37° C. in 5% CO2 (96-well plate reader, Dynex Technologies, West Sussex, UK). The various compounds (Y27632 or compounds of the invention) or DMSO control were then added to duplicate wells and the absorbance determined in the same way at the time points indicated. Each data set shown is representative of three separate experiments.

[2] = system: GEF16 transformed NIH3T3 cells; test: Flow cytometry of DNA content (cell cycle, sub G1); assay type: cell-based, mouse
Protocol: NIH3T3 cells with or without drug treatments (with Y27632 or the compounds of the invention) were harvested at various time points and cell counts carried out to confirm that 1×10^6 cells were present for each cytometric analysis. Cells were washed with PBS, fixed with 70% ice-cold ethanol, pelleted and DNA stained by incubating the cells with propidium iodide ([…]) (Sigma-Aldrich, Poole, UK) at 4° C. for 45 min. Cells were then washed twice with ice-cold PBS and resuspended in 400 μl of PBS. The DNA content during different phases of the cell cycle was then determined by flow cytometry (BD Biosciences, Oxford, UK). Each profile shown was representative of three separate experiments.

[3] = system: single transformed colony derived GEF16 NIH3T3 cells; test: Growth of cell populations derived from single GEF16 transformed colonies; assay type: cell-based, mouse
Protocol: FIG. 5 illustrates that the growth suppressive effects of YA1 on single transformed colony derived GEF16 NIH3T3 cells and polyclonal Ras transformed NIH3T3 cells are more pronounced when these are co-cultured with non-transformed cells. In FIG. 5A single transformed colonies were picked from 10 day cultures of GEF16 polyclonal NIH3T3 cells and expanded. These cells were then seeded at 2.0×10^5 cells per 30 mm dish and treated with 10 μM of YA1 or DMSO control either immediately or following 10 days in culture. Duplicate wells were harvested for flow cytometry. In FIG. 5B a total of 2×10^5 cells per well were plated consisting of increasing numbers of non-transformed vector cells co-cultured with decreasing numbers of single transformed colony derived GEF16 cells. These were treated with 10 μM of either YA1 or DMSO for 10 days. In producing the results shown in FIG. 5C the same co-culture experiment described in connection with FIG. 5B was carried out substituting polyclonal Ras transformed NIH3T3 cells for GEF16 transformed cells.
Single transformed colonies were picked from GEF16 polyclonal NIH3T3 cells and expanded according to the methods described above. Expanded cell populations were plated and a compound of the invention (YA1) added either immediately or after 10 days when the cells were post-confluent.

ROCK1 = ROCK1 (Homo sapiens, UniProt Q13464); test: SelectScreen additional single point analysis; settings: 10 μM
[4] = system: polyclonal GEF16 transfected NIH3T3 cells; test: Transformed colony forming assay (Toluidine blue)
Protocol: Following this incubation period the compound was then removed from the culture media and cells maintained in normal growth media for a further 10 days before the photographs shown were taken.
In FIG. 4A polyclonal GEF16 transfected cells were seeded at 2.0×10^5 cells per 30 mm dish and incubated over night. […] After a further 10 days culture in the absence of inhibitors the cells were stained with Toluidine blue and photographed to produce the images shown. […] These were incubated for 3 or 6 days then stained with Toluidine blue before being photographed.
Medium (containing the compound of interest—either Y27632 or the selected compounds of the invention—or DMSO control) was changed every 2 days. Formation of foci was analysed by Toluidine blue (Sigma-Aldrich, Poole, UK) staining after 10 days growth post confluence. […] Each assay was carried out in triplicate and the results shown are representative of at least three separate experiments.

p38 alpha (MAPK14) = p38 alpha (MAPK14) (Homo sapiens, UniProt Q16539); test: SelectScreen in vitro kinase profiling, single point
HGK (MAP4K4) = HGK (MAP4K4) (Homo sapiens, UniProt O95819); test: as above
Aurora A = biological target: T1, Aurora A (Homo sapiens, UniProt O14965); test: as above
T1 sequence (O14965 1-403): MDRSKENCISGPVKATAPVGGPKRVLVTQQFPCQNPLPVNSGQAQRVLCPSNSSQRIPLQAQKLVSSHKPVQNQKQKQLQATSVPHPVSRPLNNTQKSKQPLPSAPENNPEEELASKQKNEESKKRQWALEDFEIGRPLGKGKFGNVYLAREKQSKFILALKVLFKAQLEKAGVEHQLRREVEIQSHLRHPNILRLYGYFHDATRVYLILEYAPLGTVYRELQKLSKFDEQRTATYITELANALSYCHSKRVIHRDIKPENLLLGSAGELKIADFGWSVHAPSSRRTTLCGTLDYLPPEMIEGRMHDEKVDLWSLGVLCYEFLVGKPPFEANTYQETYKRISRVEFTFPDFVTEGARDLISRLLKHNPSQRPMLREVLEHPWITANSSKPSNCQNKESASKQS

[5] = additional single point analysis, 10 μM

HGK (MAP4K4), sequence (O95819 whole entry): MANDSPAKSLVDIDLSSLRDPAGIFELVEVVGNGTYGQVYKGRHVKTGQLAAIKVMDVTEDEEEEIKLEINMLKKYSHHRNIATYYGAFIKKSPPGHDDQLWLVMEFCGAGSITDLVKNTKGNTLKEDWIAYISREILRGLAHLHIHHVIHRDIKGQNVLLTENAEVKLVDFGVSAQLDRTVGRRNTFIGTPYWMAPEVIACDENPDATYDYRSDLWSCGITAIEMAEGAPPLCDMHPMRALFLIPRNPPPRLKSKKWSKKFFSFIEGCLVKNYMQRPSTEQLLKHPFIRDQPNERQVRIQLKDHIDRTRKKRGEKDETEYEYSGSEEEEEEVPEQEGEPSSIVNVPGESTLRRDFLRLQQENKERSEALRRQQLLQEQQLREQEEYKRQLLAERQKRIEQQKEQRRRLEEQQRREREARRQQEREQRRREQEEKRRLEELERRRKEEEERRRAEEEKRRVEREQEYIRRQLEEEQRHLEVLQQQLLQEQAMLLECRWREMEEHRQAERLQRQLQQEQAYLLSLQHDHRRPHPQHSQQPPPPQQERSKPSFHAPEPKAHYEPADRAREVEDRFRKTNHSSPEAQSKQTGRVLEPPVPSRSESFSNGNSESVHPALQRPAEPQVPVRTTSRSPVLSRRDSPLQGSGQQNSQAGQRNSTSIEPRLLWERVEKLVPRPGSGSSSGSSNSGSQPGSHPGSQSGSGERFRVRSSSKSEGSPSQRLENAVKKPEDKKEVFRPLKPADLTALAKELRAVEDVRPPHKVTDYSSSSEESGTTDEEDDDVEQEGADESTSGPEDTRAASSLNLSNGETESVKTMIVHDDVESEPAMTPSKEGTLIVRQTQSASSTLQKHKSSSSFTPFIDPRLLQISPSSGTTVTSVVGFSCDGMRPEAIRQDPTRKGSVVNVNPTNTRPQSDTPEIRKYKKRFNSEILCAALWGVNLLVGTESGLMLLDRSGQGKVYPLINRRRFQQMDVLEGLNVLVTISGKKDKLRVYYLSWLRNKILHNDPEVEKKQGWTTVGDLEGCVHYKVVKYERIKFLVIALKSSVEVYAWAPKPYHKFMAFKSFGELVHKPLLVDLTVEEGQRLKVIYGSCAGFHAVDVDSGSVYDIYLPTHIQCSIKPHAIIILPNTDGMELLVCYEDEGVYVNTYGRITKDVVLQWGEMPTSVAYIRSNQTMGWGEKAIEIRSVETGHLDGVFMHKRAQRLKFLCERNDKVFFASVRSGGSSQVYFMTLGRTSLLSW
p38 alpha (MAPK14), sequence (Q16539 whole entry): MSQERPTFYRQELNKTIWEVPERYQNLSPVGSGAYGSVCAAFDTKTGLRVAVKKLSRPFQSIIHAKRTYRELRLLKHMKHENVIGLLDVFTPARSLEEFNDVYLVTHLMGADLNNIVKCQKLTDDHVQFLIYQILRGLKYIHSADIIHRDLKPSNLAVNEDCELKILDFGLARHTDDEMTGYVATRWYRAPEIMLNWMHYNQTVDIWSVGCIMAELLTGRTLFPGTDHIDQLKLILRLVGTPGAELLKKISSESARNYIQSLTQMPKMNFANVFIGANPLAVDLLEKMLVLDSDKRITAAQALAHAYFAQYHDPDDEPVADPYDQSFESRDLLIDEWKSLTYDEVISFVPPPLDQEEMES
ROCK1, sequence (Q13464 whole entry): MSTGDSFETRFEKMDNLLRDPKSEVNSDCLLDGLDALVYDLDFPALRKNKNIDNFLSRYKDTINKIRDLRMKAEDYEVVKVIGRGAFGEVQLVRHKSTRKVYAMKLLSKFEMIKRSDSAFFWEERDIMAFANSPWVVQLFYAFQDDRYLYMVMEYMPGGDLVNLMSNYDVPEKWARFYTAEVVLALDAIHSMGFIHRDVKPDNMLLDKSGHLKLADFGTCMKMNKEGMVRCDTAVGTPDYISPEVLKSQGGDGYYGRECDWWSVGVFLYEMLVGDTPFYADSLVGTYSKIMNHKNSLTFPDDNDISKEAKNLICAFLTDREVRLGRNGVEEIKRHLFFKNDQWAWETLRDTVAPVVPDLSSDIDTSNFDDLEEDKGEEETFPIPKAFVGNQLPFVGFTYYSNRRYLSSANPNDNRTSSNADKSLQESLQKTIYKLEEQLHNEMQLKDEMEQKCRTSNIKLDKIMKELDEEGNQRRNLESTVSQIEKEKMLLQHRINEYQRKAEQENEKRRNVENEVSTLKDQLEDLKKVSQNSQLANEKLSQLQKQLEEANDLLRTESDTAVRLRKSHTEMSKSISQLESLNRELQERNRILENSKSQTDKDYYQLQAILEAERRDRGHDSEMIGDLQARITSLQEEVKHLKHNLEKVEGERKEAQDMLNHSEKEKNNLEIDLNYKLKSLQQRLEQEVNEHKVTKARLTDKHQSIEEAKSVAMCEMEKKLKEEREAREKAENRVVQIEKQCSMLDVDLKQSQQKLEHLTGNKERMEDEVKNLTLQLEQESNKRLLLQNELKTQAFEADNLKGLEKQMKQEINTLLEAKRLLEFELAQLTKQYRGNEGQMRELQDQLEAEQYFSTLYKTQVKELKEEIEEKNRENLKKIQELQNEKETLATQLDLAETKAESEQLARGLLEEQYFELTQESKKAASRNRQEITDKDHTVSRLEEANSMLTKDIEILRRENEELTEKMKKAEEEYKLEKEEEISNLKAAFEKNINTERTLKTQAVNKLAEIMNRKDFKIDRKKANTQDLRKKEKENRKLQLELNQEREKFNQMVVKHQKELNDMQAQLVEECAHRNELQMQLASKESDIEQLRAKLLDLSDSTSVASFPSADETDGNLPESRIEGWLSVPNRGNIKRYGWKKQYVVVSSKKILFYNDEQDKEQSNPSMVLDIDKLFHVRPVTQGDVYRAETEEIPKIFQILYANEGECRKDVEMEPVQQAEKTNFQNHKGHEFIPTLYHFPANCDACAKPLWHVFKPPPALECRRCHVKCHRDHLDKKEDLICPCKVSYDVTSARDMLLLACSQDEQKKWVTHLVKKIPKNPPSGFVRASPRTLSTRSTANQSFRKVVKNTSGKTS

## CC(C)(C)OC(=O)NCc1ccc(C(=O)Nc2ccncc2)cc1 [YA1, 4-(Pyridin-4-ylcarbamoyl)benzylcarbamic acid tert-butyl ester]
Recombinant ROCK
  ROCK inhibitory activity compared to Y27632: lower ROCK inhibitory activity; also recorded: significantly less activity against ROCK than did their structural analogue Y27632
[1]
  growth rates of sub-confluent GEF16 polyclonal cells versus DMSO control: no detectable difference in growth rates
[2]; polyclonal GEF16 cells, 10 μM, FIG. 3C
  cell cycle / apoptotic sub G1 population: no evidence of alterations in cell cycle or the accumulation of an apoptotic sub G1 population
[2]; single colony derived GEF16 cells, treated pre or post confluence
  cell cycle / apoptotic sub G1 population: no effect on the cell cycle and no apoptotic sub G1 population is seen
[3]; 10 μM, added after 10 days in culture
  effect on single colony derived GEF16 cells, added to post-confluent cultures: no discernible effect when compared to controls
[3]; 10 μM, added immediately
  saturation density of single colony derived GEF16 cells, added to low density cultures: modest effect when added to low density cultures
[3]; FIG. 5A
  effect on single colony derived GEF16 transformed cells grown in the absence of non-transformed cells: little or no effect
ROCK1
  activity against ROCK1: less activity against ROCKs than YA2
[4]; 10 μM for 2, 4, 6, 8, 10 days, then 10 day chase in normal media
  number of transformed foci after transient exposure and withdrawal: progressive decrease in the number of transformed foci associated with increased time of exposure
[4]; 10 μM for 2-10 days, re-seeded at 2×10^5, 10 day chase without inhibitor
  transformed focus formation after treatment, re-seeding and chase: able to suppress transformed focus formation
[4]; 10 μM, 10 days, post confluent cultures
  formation of GEF16 transformed colonies: able to block transformed GEF16 colony formation to an extent comparable to the inhibition achieved using Y27632; also recorded: greatest ability to inhibit GEF16 transformed colonies
[4]; colonies formed for 10 days, then 10 μM or 20 μM for 3 and 6 days
  effect on pre-formed transformed colonies: marked reduction in their numbers
p38 alpha (MAPK14); [5]
  activity against p38: significant activity against p38, HGK and Aurora A
p38 alpha (MAPK14); read-out: inhibitory activity against p38 alpha (MAPK14)
  inhibition at 10 µM: 72%
HGK (MAP4K4); [5]
  activity against HGK: significant activity against p38, HGK and Aurora A
HGK (MAP4K4); read-out: inhibitory activity against HGK (MAP4K4)
  inhibition at 10 µM: 63%
Aurora A; [5]
  activity against Aurora A: significant activity against p38, HGK and Aurora A
Aurora A; read-out: inhibitory activity against Aurora A
  inhibition at 10 µM: 44%
